Measured values: patent publication US20120122692A1, “Method and Formulation for Eliminating Moss with Oregano Oil” (priority 2006, published 2012)

How the values were obtained:
silvery thread moss = assay: Field test of spray treatments on silvery thread moss in a creeping bentgrass putting green: percent moss cover; format: in vivo, Bryum argenteum
Experimental: (§1) Aqueous solutions of oregano oil extract were tested on silvery thread moss growing on turf grass. The turf grass was a mature stand of “Penncross” creeping bentgrass Agrostis stolonifera L. on a sand based rootzone. IA grid of six inch square plots were arranged on the turf. Each plot was initially rated for percent moss cover on July, 2006. Only plots with greater than 50% moss cover tracked for this test. Table 1 summarized the 79 treatments tested. Oregano oil extract formulations were compared with carefentrazone and a non-treated control. Several oregano oil formulation includes a surfactant, and these formation are marked as ORG AS, ORG BS, ORG CS, and ORG DS. Each formulation was applied as a squirt or pump from a spray bottle containing the formulation. The spray bottle used was one quart bottle that delivered 2.8 ml per pump onto a four inch square are. All of the formulations were applied at least once on Jul. 6, 2006. Sequential applications were also additionally performed bi-weekly on Jul. 20, Aug. 17 and Sep. 12, 2006 for a total of one, three, or four bi-weekly application. Each carefentrazone application was made at a recommended rate of 6.7 fl. Oz. product/A.
(§2) The data from the test were analyzed using PROC ANOVA of the SAS software, Version 8 of the SAS System for Windows (SAS Institute, 1999). Means were separated (alpha=0.05) by Fischer's protected LSD (Fischer, 1966). Turf quality was rated on a scale of 1-10, where 10=best turf with no phyoxicity, 6=lowest acceptable turf quality and turf phytotoxicity, 1=worst turf quality with most phytotosixity and completely brown turf.

[1] = test system: “Penncross” creeping bentgrass Agrostis stolonifera L.; assay: Field test of spray treatments on a creeping bentgrass putting green: turf quality / phytotoxicity rating; format: in vivo; settings: scale 1-10: 10=best turf, no phytotoxicity, 6=lowest acceptable, 1=completely brown turf
Experimental: as §1, §2

Question: What does the source list for Cc1nn(-c2cc(CC(Cl)C(=O)O)c(Cl)cc2F)c(=O)n1C(F)F (stereo not drawn) [ES11, Carfentrazone]?
Answer: % Moss Cover (silvery thread moss; 9 Oct (Oct. 9, 2006)): 77.0%; % Moss Cover (silvery thread moss; 12 Sep): 65.8%; % Moss Cover (silvery thread moss; 17 Aug): 82.0%; Turf Quality ([1]; 9 Oct): 10.0; Turf Quality ([1]; 12 Sep): 10.0; Turf Quality ([1]; 17 Aug): 10.0

Question: For Cc1nn(-c2cc(CC(Cl)C(=O)O)c(Cl)cc2F)c(=O)n1C(F)F (stereo not drawn) [ES13, Carfentrazone], which “% Moss Cover” value (silvery thread moss; 9 Oct (Oct. 9, 2006)) is on record?
Answer: Its value is 63.0%.

Question: And the “% Moss Cover” value (silvery thread moss; 12 Sep)?
Answer: The value was 75.0%.

Question: And the “% Moss Cover” value (silvery thread moss; 17 Aug)?
Answer: The value was 81.8%.

Question: What about the “Turf Quality” value ([1]; 9 Oct) of the same compound?
Answer: Its value is 10.0.

Question: And the “Turf Quality” value ([1]; 12 Sep)?
Answer: Its value is 10.0.

Question: What about the “Turf Quality” value ([1]; 17 Aug) of the same compound?
Answer: The value was 10.0.

Question: With Cc1nn(-c2cc(CC(Cl)C(=O)O)c(Cl)cc2F)c(=O)n1C(F)F (stereo not drawn) [ES16, Carfentrazone] as the compound, how does the “% Moss Cover” value (silvery thread moss; 9 Oct (Oct. 9, 2006)) read?
Answer: Its value is 55.8%.

Question: And the “% Moss Cover” value (silvery thread moss; 12 Sep)?
Answer: Its value is 61.8%.

Question: What about the “% Moss Cover” value (silvery thread moss; 17 Aug) of the same compound?
Answer: Its value is 55.8%.

Question: What about the “Turf Quality” value ([1]; 9 Oct) of the same compound?
Answer: Its value is 10.0.

Question: What about the “Turf Quality” value ([1]; 12 Sep) of the same compound?
Answer: The value was 10.0.

Question: And the “Turf Quality” value ([1]; 17 Aug)?
Answer: The value was 10.0.

Question: What does the source list for Cc1nn(-c2cc(CC(Cl)C(=O)O)c(Cl)cc2F)c(=O)n1C(F)F (stereo not drawn) [Treatment E11, Carfentrazone]?
Answer: % Moss Cover (silvery thread moss; 9 Oct (Oct. 9, 2006)): 48.0%; % Moss Cover (silvery thread moss; 12 Sep): 66.0%; % Moss Cover (silvery thread moss; 17 Aug): 60.0%; Turf Quality ([1]; 9 Oct): 10.0; Turf Quality ([1]; 12 Sep): 10.0; Turf Quality ([1]; 17 Aug): 10.0

Question: Cc1nn(-c2cc(CC(Cl)C(=O)O)c(Cl)cc2F)c(=O)n1C(F)F (stereo not drawn) [Treatment E13, Carfentrazone] was tested. Which “% Moss Cover” value (silvery thread moss; 9 Oct (Oct. 9, 2006)) did it give?
Answer: Its value is 70.8%.

Question: What about the “% Moss Cover” value (silvery thread moss; 12 Sep) of the same compound?
Answer: Its value is 73.8%.

Question: And the “% Moss Cover” value (silvery thread moss; 17 Aug)?
Answer: The value was 68.8%.

Question: And the “Turf Quality” value ([1]; 9 Oct)?
Answer: The value was 10.0.

Question: What about the “Turf Quality” value ([1]; 12 Sep) of the same compound?
Answer: Its value is 10.0.

Question: And the “Turf Quality” value ([1]; 17 Aug)?
Answer: Its value is 9.6.

Question: With Cc1nn(-c2cc(CC(Cl)C(=O)O)c(Cl)cc2F)c(=O)n1C(F)F (stereo not drawn) [Treatment E16, Carfentrazone] as the compound, how does the “% Moss Cover” value (silvery thread moss; 9 Oct (Oct. 9, 2006)) read?
Answer: Its value is 55.0%.

Question: And the “% Moss Cover” value (silvery thread moss; 12 Sep)?
Answer: Its value is 59.0%.

Question: What about the “% Moss Cover” value (silvery thread moss; 17 Aug) of the same compound?
Answer: The value was 58.0%.

Question: What about the “Turf Quality” value ([1]; 9 Oct) of the same compound?
Answer: Its value is 9.6.

Question: And the “Turf Quality” value ([1]; 12 Sep)?
Answer: The value was 10.0.

Question: And the “Turf Quality” value ([1]; 17 Aug)?
Answer: Its value is 10.0.
